We go through 17 compounds from patent publication US11912668B2, “GCN2 and perk kinase inhibitors and methods of use thereof” (Deciphera Pharmaceuticals, LLC, priority 2020, dated 2024).

The subject of experiment [1] is ATF4 in HCT116 colorectal cancer cells. In words: HCT116 amino acid starved (-AA) ATF4 assay (Western blot). The class given is cell-based. The conditions noted are these: Homo sapiens, HCT-116, 4 h. The protocol:
(§1) HCT116 colorectal cancer cells (catalog #CCL-247) were obtained from the American Type Culture Collect (ATTC, Manassas, VA). Briefly, cells were grown in RPMI 1640 supplemented with 10% heat inactivated fetal bovine serum (Invitrogen, Carlsbad, CA) and 1% Penicillin/Streptomycin/L-Glutamine at 37° C., 5% CO2, and 95% humidity. Cells were expanded until reaching 70-95% confluency at which point they were subcultured or harvested for assay use. Cells were seeded in 12-well culture plate at five hundred thousand cells per well in 1 mL complete growth medium and incubated overnight at 37° C., 5% CO2, and 95% humidity. The next day each well was replaced with 1 mL Earle's Balanced Salt Solution (EBSS, Invitrogen, Carlsbad, CA) supplemented with 10% Dialyzed Fetal Bovine Serum, 5.5 mM Glucose, 1% Penicillin/Streptomycin and 1% Vitamin solution (thermo #11120052). A serial dilution of test compound was dispensed into well. Plates were incubated for 4 h at 37° C., 5% CO2, and 95% humidity. At the end of the incubation, cells were washed with PBS supplemented with 1× Halt protease inhibitor, 1× Halt phosphatase inhibitor, 1× Sigma phosphatase inhibitor cocktail 2 and 1×EDTA and then lysed with M-PER Mammalian Protein Extraction Reagent supplemented with 3× of the inhibitor mix as described above. Cell lysates were sonicated with water bath sonicator (Qsonica, Newtown, CT) and supernatants were boiled with SDS buffer and reducing agent. Western blot was performed on each lysate to quantify phospho-GCN2 (Thr899), total GCN2, ATF4 and beta-Actin. Membranes were imaged with LI-COR Odyssey CLx Imaging System (LI-COR, Lincoln, NE). Data were analyzed using GraphPad Prism software (GraphPad, San Diego, CA) to calculate IC50 values.

The target in a further experiment is GCN2 kinase (Homo sapiens (Human), UniProt Q9P2K8). In words: Biochemical assay for GCN2 (TR-FRET kinase activity assay). The conditions noted are these: 1 mM ATP, 3-hour incubation. The protocol:
Activity of GCN2 kinase was determined using a TR-FRET kinase activity assay (e.g. Riddle et al. Analytical Biochemistry (2006) 356(1) 108-116). Assays were conducted in 384-well plates (13 μL assay volume) using 2 nM GCN2 (Carna Biosciences), 130 nM GFP-EIf2α (Invitrogen), 0.2 mg/mL E. coli tRNA (sigma) and 1 mM ATP in kinase buffer (Invitrogen). Inhibition of GCN2 was measured by adding serial diluted test compound (final assay concentration of 0.5% DMSO) followed by a 3-hour incubation. Tb-peIF2α (pSer52) antibody (Invitrogen) (2 nM final assay concentration) in kinase buffer containing ETDA (final assay concentration of 20 mM) was added. After a 60 min incubation at room temperature, TR-FRET was monitored using an excitation wavelength of 340 nm and emission wavelengths of 490 nm and 520 nm. The emission ratio (520/490) at each compound concentration of was converted to percent inhibition using controls (i.e. reaction with no test compound and reaction with a known inhibitor) and IC50 values were calculated by fitting a four-parameter sigmoidal curve to the data using Prism (GraphPad software).
A general note: In TR-FRET formats the signal depends on donor and acceptor labels being close together.

The next experiment has as its system CCRF-CEM leukemia cells. In words: CCRF-CEM ASNase cell proliferation assay, phenotypic assay for cellular inhibition of GCN2. In kind it is cell-based. The conditions noted are these: Homo sapiens; ASNase treated CCRF-CEM cells, 1 mU/mL ASNase, 72 h. The method, then:
CCRF-CEM leukemia cells (catalog #CCL-116) were obtained from the American Type Culture Collect (ATTC, Manassas, VA). Cells were grown in RPMI-1640 medium supplemented with 10% heat-inactivated fetal bovine serum (Invitrogen, Carlsbad, CA) and 1% Penicillin/Streptomycin/L-Glutamine at 37° C., 5% CO2, and 95% humidity. Cells were expanded until reaching one million cells per mL at which time they are subcultured or harvested for assay use. Ten thousand cells per well in 200 μL RPMI-1640 supplemented with 10% heat-inactivated fetal bovine serum and 1% Penicillin/Streptomycin were dispensed into a 96-well black clear bottom plate. A serial dilution of test compound and 1 mU/mL ASNase was added in triplicate and plates were incubated for 72 h at 37° C., 5% CO2, and 95% humidity. At the end of the incubation, 40 μL of a […] solution of resazurin (Sigma, St. Louis, MO) in PBS was added to each well of the plate and plates were incubated for an additional 6 h at 37° C., 5% CO2, and 95% humidity. Plates were read on a Synergy2 or equivalent reader (Biotek, Winooski VT) using an excitation of 540 nm and an emission of 600 nm. Data was analyzed using GraphPad Prism software (GraphPad, San Diego, CA) to calculate IC50 values.

The target of a further experiment is PERK kinase (Homo sapiens (Human), UniProt Q9NZJ5). In words: Biochemical assay for PERK (coupled pyruvate kinase/lactate dehydrogenase assay). The conditions noted are these: 1 mM ATP, rate from 2-3 h time frame. The protocol: Activity of PERK kinase was determined spectroscopically using a coupled pyruvate kinase/lactate dehydrogenase assay that continuously monitors the ATP hydrolysis-dependent oxidation of NADH (e.g., Schindler et al. Science (2000) 289: 1938-1942). Assays were conducted in 384-well plates (100 μL final volume) using 10 nM PERK (from Beryllium), 0.25 mg/mL Myelin Basic Protein substrate, 1.5 units pyruvate kinase, 2.1 units lactate dehydrogenase, 1 mM phosphoenol pyruvate, 0.28 mM NADH and 1 mM ATP in assay buffer (100 mM Tris, pH 7.5, 15 mM MgCl2, 0.5 mM DTT, 0.004% (w/v) BSA, and 0.004% Triton X-100). Inhibition of PERK was measured by adding serial diluted test compound (final assay concentration of 1% DMSO). A decrease in absorption at 340 nm was monitored continuously for 6 hours at 30° C. on a multi-mode microplate reader (BioTek). The reaction rate was calculated using the 2-3 h time frame. The reaction rate at each concentration of compound was converted to percent inhibition using controls (i.e. reaction with no test compound and reaction with a known inhibitor) and IC50 values were calculated using software routines in Prism (GraphPad software).
PERK kinase, sequence (Q9NZJ5 other isoform, or with tags, fused parts or gaps): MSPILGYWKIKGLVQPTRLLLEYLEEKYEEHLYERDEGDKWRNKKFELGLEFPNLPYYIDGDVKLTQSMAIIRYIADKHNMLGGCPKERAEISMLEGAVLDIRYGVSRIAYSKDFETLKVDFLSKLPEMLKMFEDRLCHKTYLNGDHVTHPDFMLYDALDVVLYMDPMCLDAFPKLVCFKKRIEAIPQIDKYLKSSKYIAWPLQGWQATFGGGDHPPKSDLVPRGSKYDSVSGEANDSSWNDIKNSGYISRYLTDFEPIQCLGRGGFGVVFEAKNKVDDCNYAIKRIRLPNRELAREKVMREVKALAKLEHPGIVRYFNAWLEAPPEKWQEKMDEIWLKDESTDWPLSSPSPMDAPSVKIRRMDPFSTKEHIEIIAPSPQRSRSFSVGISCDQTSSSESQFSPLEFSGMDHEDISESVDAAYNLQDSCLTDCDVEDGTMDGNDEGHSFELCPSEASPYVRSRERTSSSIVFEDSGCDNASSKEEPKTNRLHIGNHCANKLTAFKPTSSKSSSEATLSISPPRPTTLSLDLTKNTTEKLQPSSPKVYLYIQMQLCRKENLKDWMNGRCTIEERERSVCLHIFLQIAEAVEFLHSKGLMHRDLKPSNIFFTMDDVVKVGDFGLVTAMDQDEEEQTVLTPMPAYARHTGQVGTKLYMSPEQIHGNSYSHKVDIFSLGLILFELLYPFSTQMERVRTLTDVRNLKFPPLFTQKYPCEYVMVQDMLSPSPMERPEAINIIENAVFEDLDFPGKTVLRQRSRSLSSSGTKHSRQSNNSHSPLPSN

The test system of experiment [2] is phospho-GCN2 (Thr899) in HCT116 colorectal cancer cells. In words: HCT116 amino acid starved (-AA) phospho-GCN2 assay (Western blot). In kind it is cell-based. The conditions noted are these: Homo sapiens, HCT-116, 4 h, read-out: HCT116-AA pGCN2 Western Blot. The method, then: as §1
The subject of experiment [3] is ATF4 in CCRF-CEM leukemia cells (PERK). In words: CCRF-CEM TG ATF4 ELISA, phenotypic assay for cellular inhibition of PERK preactivated by thapsigargin. In kind it is cell-based. The conditions noted are these: Homo sapiens; Thapsigargin (1 μM) stimulated CCRF-CEM cells. The method, then:
CCRF-CEM leukemia cells (catalog #CCL-116) were obtained from the American Type Culture Collection (ATTC, Manassas, VA). Briefly, cells were grown in RPMI-1640 medium supplemented with 10% heat-inactivated fetal bovine serum (Invitrogen, Carlsbad, CA) and 1% Penicillin/Streptomycin/L-Glutamine at 37° C., 5% CO2, and 95% humidity. Cells were expanded until reaching one million cells per mL at which time they were subcultured or harvested for assay use. One million five hundred thousand cells per well in 1 mL complete growth medium were dispensed into 12-well plates and incubated overnight. A serial dilution of test compound was added and cells were incubated at 37° C., 5% CO2, and 95% for three hours, then 1 μM thapsigargin was added and cells were incubated for an additional hour at 37° C., 5% CO2, and 95%. Cells were lysed then ATF4 levels were measured using an ELISA assay (Proteintech, Rosemont, IL). Absorbance was measured at 450 nm and 544 nM using a Synergy2 or equivalent reader (Biotek, Winooski VT). Data was analyzed using PRISM software (Graphpad, San Diego, CA) to calculate IC50 values.
For orientation: In an ELISA, binding on a coated surface is turned into a signal by an enzyme label.

GCN2 kinase, sequence (Q9P2K8 whole entry): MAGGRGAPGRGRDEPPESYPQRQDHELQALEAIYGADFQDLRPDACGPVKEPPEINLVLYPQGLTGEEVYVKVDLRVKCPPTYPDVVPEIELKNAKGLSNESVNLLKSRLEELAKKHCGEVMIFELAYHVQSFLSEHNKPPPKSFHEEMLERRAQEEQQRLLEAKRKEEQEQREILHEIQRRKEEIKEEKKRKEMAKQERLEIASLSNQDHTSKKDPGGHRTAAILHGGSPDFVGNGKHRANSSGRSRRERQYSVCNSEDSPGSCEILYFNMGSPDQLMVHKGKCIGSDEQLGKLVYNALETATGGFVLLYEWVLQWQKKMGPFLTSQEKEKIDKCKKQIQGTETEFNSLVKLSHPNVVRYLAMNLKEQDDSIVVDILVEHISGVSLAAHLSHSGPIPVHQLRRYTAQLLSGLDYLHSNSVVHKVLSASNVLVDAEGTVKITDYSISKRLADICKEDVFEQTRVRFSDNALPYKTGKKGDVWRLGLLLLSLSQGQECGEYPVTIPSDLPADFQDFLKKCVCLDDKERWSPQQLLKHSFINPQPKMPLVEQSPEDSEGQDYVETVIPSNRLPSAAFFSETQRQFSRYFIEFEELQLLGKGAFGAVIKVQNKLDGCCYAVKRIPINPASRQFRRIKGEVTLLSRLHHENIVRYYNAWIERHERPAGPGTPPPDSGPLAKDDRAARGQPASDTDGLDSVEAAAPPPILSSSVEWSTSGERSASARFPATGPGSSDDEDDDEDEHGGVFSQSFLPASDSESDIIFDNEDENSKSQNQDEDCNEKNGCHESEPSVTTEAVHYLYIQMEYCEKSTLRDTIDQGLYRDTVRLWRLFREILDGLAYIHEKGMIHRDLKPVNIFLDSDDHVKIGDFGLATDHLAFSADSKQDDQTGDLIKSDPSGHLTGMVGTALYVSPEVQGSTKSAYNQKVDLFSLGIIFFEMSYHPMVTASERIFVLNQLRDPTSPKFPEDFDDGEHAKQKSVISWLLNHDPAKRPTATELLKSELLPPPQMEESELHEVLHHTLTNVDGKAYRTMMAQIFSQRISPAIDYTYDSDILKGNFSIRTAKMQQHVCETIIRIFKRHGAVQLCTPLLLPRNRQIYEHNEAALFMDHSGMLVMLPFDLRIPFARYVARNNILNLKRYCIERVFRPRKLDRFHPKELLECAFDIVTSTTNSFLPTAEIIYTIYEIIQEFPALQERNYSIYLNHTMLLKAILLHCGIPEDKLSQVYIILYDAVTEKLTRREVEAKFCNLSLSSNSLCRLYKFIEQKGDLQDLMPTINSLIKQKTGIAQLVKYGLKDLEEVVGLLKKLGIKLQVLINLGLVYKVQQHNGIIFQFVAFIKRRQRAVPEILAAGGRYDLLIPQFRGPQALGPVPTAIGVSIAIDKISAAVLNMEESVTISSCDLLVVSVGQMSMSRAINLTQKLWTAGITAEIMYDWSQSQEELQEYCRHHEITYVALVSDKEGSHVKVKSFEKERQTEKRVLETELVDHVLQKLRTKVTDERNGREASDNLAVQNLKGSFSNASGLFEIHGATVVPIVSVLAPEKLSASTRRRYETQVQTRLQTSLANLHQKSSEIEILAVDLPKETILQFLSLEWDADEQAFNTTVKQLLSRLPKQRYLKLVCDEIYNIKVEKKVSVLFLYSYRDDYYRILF

`CNc1ncc2cc(-c3cccc(NS(=O)(=O)c4cc(Cl)cnc4OC)c3F)c(C)nc2n1` [Example 3, 5-chloro-N-(2-fluoro-3-(7-methyl-2-(methylamino)pyrido[2,3-d]pyrimidin-6-yl)phenyl)-2-methoxypyridine-3-sulfonamide]: the IC50 (in experiment [1]; on GCN2 kinase; with CCRF-CEM leukemia cells; against PERK kinase; in experiment [2]) was at most 100 nM each time.
Consider `CNc1cc2ncc(-c3cccc(NS(=O)(=O)c4cc(Cl)cc(CO)c4Cl)c3F)cc2cn1` [Example 4, 2,5-dichloro-N-(2-fluoro-3-(7-(methylamino)-1,6-naphthyridin-3-yl)phenyl)-3-(hydroxymethyl)benzenesulfonamide], for which the IC50 is at most 100 nM against GCN2 kinase, 1000 to 10000 nM in the experiment with CCRF-CEM leukemia cells, at most 100 nM against PERK kinase and at most 100 nM in experiment [3].
As to `CNc1ncc2cc(-c3cc(F)cc(NS(=O)(=O)c4cc(Cl)cnc4OC)c3)c(NC)nc2n1` [Example 11], the IC50 was at most 100 nM in experiment [1]; at most 100 nM against GCN2 kinase; 100 to 500 nM in the experiment with CCRF-CEM leukemia cells; 100 to 500 nM against PERK kinase; at most 100 nM in experiment [2]; 1000 to 10000 nM in experiment [3].
Consider `CNc1cc2nc(C)c(-c3cc(NS(=O)(=O)c4cc(Cl)cc(CO)c4Cl)c(F)cc3Br)cc2cn1` [Example 14], for which the IC50 is 500 to 1000 nM in experiment [1]; at most 100 nM on GCN2 kinase; 1000 to 10000 nM in the experiment on CCRF-CEM leukemia cells; 100 to 500 nM against PERK kinase; 100 to 500 nM in experiment [2]; 1000 to 10000 nM in experiment [3].
In the case of `CNc1ncc2cc(-c3cccc(NS(=O)(=O)c4cc(Cl)cnc4OC)c3)c(NC)nc2n1` [Example 15], the IC50 was 100 to 500 nM in experiment [1]; at most 100 nM at GCN2 kinase; 100 to 500 nM in the experiment on CCRF-CEM leukemia cells; 100 to 500 nM against PERK kinase; at most 100 nM in experiment [2].
In the case of `CNc1ncc2cc(-c3cc(NS(=O)(=O)c4cc(Cl)cnc4OC)c(F)cc3C)c(C)nc2n1` [Example 17], the IC50 in experiment [1] is 1000 to 10000 nM; on GCN2 kinase, 500 to 1000 nM; in the experiment with CCRF-CEM leukemia cells, 1000 to 10000 nM; on PERK kinase, 100 to 500 nM; in experiment [2], 100 to 500 nM; in experiment [3] it was 1000 to 10000 nM.
Regarding `CNc1ncc2cc(-c3cc(F)cc(NS(=O)(=O)c4cc(Cl)cnc4OC)c3)c(C)nc2n1` [Example 65], the IC50 was 100 to 500 nM in experiment [1]; 100 to 500 nM in the experiment on CCRF-CEM leukemia cells; 100 to 500 nM at PERK kinase; at most 100 nM in experiment [2]; 1000 to 10000 nM in experiment [3].
For the compound `CNc1ncc2cc(-c3cccc(NS(=O)(=O)c4cc(Cl)cnc4OC)c3F)c(OC)cc2n1` [Example 159], the IC50 is at most 100 nM at GCN2 kinase, at most 100 nM in the experiment with CCRF-CEM leukemia cells, at most 100 nM at PERK kinase and 500 to 1000 nM in experiment [3].
With `CNc1cnc(OC)c(S(=O)(=O)Nc2cccc(-c3cc4cnc(NC)cc4nc3C)c2F)c1` [Example 162], the IC50 is at most 100 nM on GCN2 kinase, at most 100 nM in the experiment on CCRF-CEM leukemia cells and 100 to 500 nM at PERK kinase.
In the case of `CNc1nc2nc(NC(C)=O)ncc2cc1-c1cc(F)cc(NS(=O)(=O)c2cc(Cl)cnc2OC)c1` [Example 164], the IC50 on GCN2 kinase was at most 100 nM; in the experiment with CCRF-CEM leukemia cells, 100 to 500 nM; against PERK kinase, 100 to 500 nM; in experiment [3], 1000 to 10000 nM.
With `COc1nc2nc(N)ncc2cc1-c1cccc(NS(=O)(=O)c2cc(Cl)cnc2OC)c1F` [Example 165], the IC50 is at most 100 nM against GCN2 kinase, at most 100 nM in the experiment with CCRF-CEM leukemia cells, at most 100 nM on PERK kinase and 1000 to 10000 nM in experiment [3].
As to `COc1cc2nc(N)ncc2cc1-c1cccc(NS(=O)(=O)c2cc(Cl)cc(CO)c2Cl)c1F` [Example 167], the IC50 (on GCN2 kinase; in the experiment on CCRF-CEM leukemia cells; against PERK kinase; in experiment [3]) was at most 100 nM each time.
On to `CNc1ncc2cc(-c3cccc(NS(=O)(=O)c4cc(OC)ccc4Cl)c3F)c(NC)nc2n1` [Example 168], for which the IC50 is at most 100 nM on GCN2 kinase, 100 to 500 nM with CCRF-CEM leukemia cells, at most 100 nM against PERK kinase and 1000 to 10000 nM in experiment [3].
For `CNc1cc2nc(N)c(-c3cccc(NS(=O)(=O)c4cc(Cl)cc(CO)c4Cl)c3F)cc2cn1` [Example 171], the IC50 (with CCRF-CEM leukemia cells; in experiment [3]) was at most 100 nM each time.
As to `CNc1ncc2cc(-c3cccc(NS(=O)(=O)c4cc(Cl)cc(CO)c4F)c3F)c(NC)nc2n1` [Example 176], the IC50 is at most 100 nM at GCN2 kinase, at most 100 nM with CCRF-CEM leukemia cells, at most 100 nM at PERK kinase and 1000 to 10000 nM in experiment [3].
With `CNc1ncc2cc(-c3cccc(NS(=O)(=O)c4cc(F)cc(CO)c4Cl)c3F)c(NC)nc2n1` [Example 177], the IC50 is at most 100 nM against GCN2 kinase, at most 100 nM in the experiment on CCRF-CEM leukemia cells, 100 to 500 nM against PERK kinase and 100 to 500 nM in experiment [3].
With `CNc1ncc2cc(-c3cccc(NS(=O)(=O)c4cc(F)cc(CO)c4F)c3F)c(NC)nc2n1` [Example 178], the IC50 at GCN2 kinase is at most 100 nM; with CCRF-CEM leukemia cells, at most 100 nM; against PERK kinase, 100 to 500 nM; in experiment [3], 1000 to 10000 nM.
